Measured values: patent US20240269138A1, “MMP13 AS A THERAPEUTIC TARGET FOR ALLERGIC INFLAMMATORY DISEASES” (The General Hospital Corporation, priority 2021, published 2024)

How the values were obtained:
[1] = system: HDM-induced allergic airway inflammation; assay: HDM-induced allergic airway inflammation (mouse model of asthma), intraperitoneal inhibitor; format: in vivo, C57BL/6 mice; conditions: for total BAL leukocyte numbers / histologically detectable changes in the lung tissue sections: 50 mg/kg intraperitoneally on days 19 and 20; for total BAL leukocyte numbers: BAL on day 21, Diff-Quik; for histologically detectable changes in the lung tissue sections: lungs on day 21, H&E and PAS; for effectiveness compared with dexamethasone: inhibitor 50 mg/kg vs dexamethasone 1 mg/kg, intraperitoneally, days 19 and 20; for inflammation in a mouse model of asthma (overall): systemic (intraperitoneal) administration
Description: C57BL/6 mice were subjected to intranasal instillation of control PBS or HDM as in FIGS. 5A-5D. Vehicle (DMSO), dexamethasone (1 mg/kg), and the MMP13 inhibitors CL82198 (MMP13i Inh1; 50 mg/kg) and DB04760 (CAS 544678-85-5; MMP13i Inh2; 50 mg/kg) were administered intraperitoneally (n=3, 3, 4, and 2 per group, respectively) on days 19 and 20. BAL and lungs of PBS- and HDM-challenged mice were prepared for analysis as in FIGS. 5A-5D. (FIG. 6A and FIG. 6B) BAL cells were analyzed by Diff-Quik staining (FIG. 6A). The numbers of total BAL cells and the indicated types of BAL cells were determined from Diff-Quik-stained cell images and are shown as means±SEM (FIG. 6B). *, P<0.05 (two-tailed unpaired Student's t test). (FIG. 6C and FIG. 6D) Lung sections were analyzed by H&E staining (FIG. 6C) and PAS staining (FIG. 6D). Mice were subjected to intranasal instillation of HDM (D. farinae) extract (XPB81D3A25; Stallergenes Greer) in phosphate-buffered saline (PBS) on days 0, 2, 5, 7, 9, 12, 14, 16 and 19. The amounts of HDM extract administered range between 1 μg and 10 μg per animal; the administered amount for each batch was determined by seeking a condition for BAL eosinophils of 2-5×10^5 cells. PBS was instilled as a control. Dexamethasone and MMP13 inhibitors were injected intraperitoneally (1 mg/kg and 50 mg/kg, respectively) on days 19 and 20. BAL and lungs of PBS- and HDM-challenged mice were prepared on day 21 for analysis. Mouse skin and lung tissues were fixed with formalin and embedded in paraffin. Tissue sections were analyzed by hematoxylin and eosin (H&E) and Periodic acid-Schiff (PAS) staining or by immunofluorescence analysis using primary antibodies in conjunction with Alexa Fluor 594- or fluorescein isothiocyanate-conjugated secondary antibodies (Thermo Fisher Scientific) and Hoechst 33342 (Sigma). Primary antibodies specific to the following antigens were used in immunofluorescence analysis after 1:100 to 1:200 dilution: CD3 (SP7; Abcam), MBP (2000-124; Mayo Clinic), and MMP13 (ab39012; Abcam). Cytospins of BAL cells were analyzed by Diff-Quik staining. Data values are expressed as means±SEM. P values were obtained with the unpaired two-tailed Student t test with Welch's correction.

[2] = molecular target: MMP13 (Homo sapiens, UniProt P45452); conditions: fill the S1′ pocket of MMP13 but cannot fit those of other MMPs; cited from earlier work
[3] = system: OVA-induced allergic dermatitis; assay: OVA-induced allergic dermatitis (mouse model of atopic dermatitis), topical inhibitor; format: in vivo, C57BL/6 mice; conditions: for inflammation in a mouse model of atopic dermatitis (overall): topical administration; for OVA-induced dermal thickening (edema formation) / OVA-induced epidermal thickening / OVA-induced T cell infiltration (CD3+ T cell density) / OVA-induced eosinophil infiltration (MBP+ eosinophil density): topical, 125 μl of 50 mM solution per cm^2 concurrently with OVA challenge, skin on day 21; for OVA-induced dermal thickening (edema formation) / OVA-induced epidermal thickening: H&E; for OVA-induced T cell infiltration (CD3+ T cell density) / OVA-induced eosinophil infiltration (MBP+ eosinophil density): immunostaining
Description: C57BL/6 mice were sensitized to OVA and challenged with control SAL or OVA as in FIGS. 1A-1G. Vehicle (water), the p38α inhibitor SCIO469 (p38αi), and the MMP13 inhibitor DB04760 (CAS 544678-85-5; MMP13i) were administered topically to the challenged skin site (125 μl of 50 mM solution per cm^2; n=10 per group) concurrently with SAL or OVA. SAL- and OVA-challenged skin was prepared for analysis as in FIGS. 1A-1G. (FIGS. 4A-4C) Skin sections were analyzed by H&E staining (FIG. 4A). Epidermal and dermal thickness (FIG. 4B and FIG. 4C, respectively) was determined from H&E-stained skin images and are shown as means±SEM. *, P<0.05; **, P<0.01 (two-tailed unpaired Student's t test). (FIGS. 4D-4G) Skin sections were analyzed by immunostaining/counterstaining for the indicated molecules (FIG. 4D and FIG. 4F). Solid and dotted line, epidermal margins and the epidermal-dermal boundary, respectively. CD3^+ T cell and MBP^+ eosinophil density (FIG. 4E and FIG. 4G, respectively) was determined on the basis of fluorescence signal-bearing cell numbers per image field and is shown as means SEM. **, P<0.01; ***, P<0.001 (two-tailed unpaired Student's t test). For allergen sensitization, OVA (Sigma) and alum adjuvant (Imject; Thermo Fisher Scientific) were combined in saline (0.9% sodium chloride; SAL) to constitute an inoculum (1 mg/ml and 100 mg/ml, respectively) and injected intraperitoneally into mice (200 μl per animal) on day 0 and 7. To elicit dermatitis in OVA-sensitized mice, shaved dorsal skin was subjected to 15 strokes of tape stripping (Tegaderm; 3M) and then challenged with OVA on days 14, 16 and 19. For this epicutaneous challenge, 100 μl of OVA (1 mg/ml in SAL) was applied to cotton gauze (1 cm×1 cm) placed on tape-stripped skin; 100 μl of SAL was applied as a control. For topical administration of p38α and MMP13 inhibitors, 125 μl of inhibitor solution (50 mM) was applied to skin sites concurrently with SAL or OVA. Challenged skin was sampled on day 21 for analysis. Mouse skin and lung tissues were fixed with formalin and embedded in paraffin. Tissue sections were analyzed by hematoxylin and eosin (H&E) and Periodic acid-Schiff (PAS) staining or by immunofluorescence analysis using primary antibodies in conjunction with Alexa Fluor 594- or fluorescein isothiocyanate-conjugated secondary antibodies (Thermo Fisher Scientific) and Hoechst 33342 (Sigma). Primary antibodies specific to the following antigens were used in immunofluorescence analysis after 1:100 to 1:200 dilution: CD3 (SP7; Abcam), MBP (2000-124; Mayo Clinic), and MMP13 (ab39012; Abcam). Cytospins of BAL cells were analyzed by Diff-Quik staining. Data values are expressed as means±SEM. P values were obtained with the unpaired two-tailed Student t test with Welch's correction.

Structure (SMILES) | total BAL leukocyte numbers [1] | histologically detectable changes in the lung tissue sections [1] | effectiveness compared with dexamethasone [1] | inflammation in a mouse model of asthma (overall) [1] | selectivity for MMP13 over other MMPs [2] | inflammation in a mouse model of atopic dermatitis (overall) [3] | OVA-induced dermal thickening (edema formation) [3] | OVA-induced epidermal thickening [3] | OVA-induced T cell infiltration (CD3+ T cell density) [3] | OVA-induced eosinophil infiltration (MBP+ eosinophil density) [3]
O=C(NCCCCN1CCOCC1)c1cc2ccccc2o1 [CL82198] | substantially reduced | prevented | superior to that of dexamethasone | suppresses inflammation | almost exclusively selective for MMP13 | – | – | – | – | –
Cc1cc(CNC(=O)c2cc(C(=O)NCc3ccc(F)c(C)c3)ncn2)ccc1F [DB04760] | substantially reduced | prevented | superior to that of dexamethasone | suppresses inflammation | – | suppresses inflammation | trend of decrease | significantly reduced | significantly reduced | trend of decrease
C[C@@H]1CN(Cc2ccc(F)cc2)[C@@H](C)CN1C(=O)c1cc2c(C(=O)C(=O)N(C)C)cn(C)c2cc1Cl [SCIO469] | – | – | – | – | – | suppresses inflammation | significant decrease | significant decrease | significant decrease | significant decrease
